For one assay, the target named is T1, FLT3 (Homo sapiens, UniProt P36888).
T1 sequence (P36888 610-943 limits assumed): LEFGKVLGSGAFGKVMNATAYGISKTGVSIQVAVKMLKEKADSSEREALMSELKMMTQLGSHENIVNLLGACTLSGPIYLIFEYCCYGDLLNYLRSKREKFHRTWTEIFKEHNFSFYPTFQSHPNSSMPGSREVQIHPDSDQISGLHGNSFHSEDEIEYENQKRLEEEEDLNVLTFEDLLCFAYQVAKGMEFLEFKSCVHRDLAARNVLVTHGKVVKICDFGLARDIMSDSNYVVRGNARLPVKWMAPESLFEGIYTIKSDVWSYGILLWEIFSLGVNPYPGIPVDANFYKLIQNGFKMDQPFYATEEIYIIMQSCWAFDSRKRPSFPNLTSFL
The assay can be described thus: RBC HotSpot Kinase Assay, FLT3.

Another assay has as its target T2, IRAK4 (Homo sapiens, UniProt Q9NWZ3).
T2 sequence (Q9NWZ3 1-460): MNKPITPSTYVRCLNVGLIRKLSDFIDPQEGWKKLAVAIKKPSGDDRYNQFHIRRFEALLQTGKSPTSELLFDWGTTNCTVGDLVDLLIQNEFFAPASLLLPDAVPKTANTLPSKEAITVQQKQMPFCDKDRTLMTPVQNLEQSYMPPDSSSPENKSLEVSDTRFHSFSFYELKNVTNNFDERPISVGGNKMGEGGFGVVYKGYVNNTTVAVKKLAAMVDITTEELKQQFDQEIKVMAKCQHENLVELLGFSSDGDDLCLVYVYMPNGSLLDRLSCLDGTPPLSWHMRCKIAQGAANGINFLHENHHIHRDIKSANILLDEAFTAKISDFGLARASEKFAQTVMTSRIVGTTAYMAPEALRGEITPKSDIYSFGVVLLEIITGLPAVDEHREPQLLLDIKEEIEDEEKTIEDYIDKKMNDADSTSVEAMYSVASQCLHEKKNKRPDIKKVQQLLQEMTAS
The assay can be described thus: RBC HotSpot Kinase Assay, IRAK4.

A further assay concerns the target IRAK1 (Homo sapiens, UniProt P51617). Description: RBC HotSpot Kinase Assay, IRAK1.

Where two headings read alike, the source gives them in different places.

IRAK1, sequence (P51617 whole entry): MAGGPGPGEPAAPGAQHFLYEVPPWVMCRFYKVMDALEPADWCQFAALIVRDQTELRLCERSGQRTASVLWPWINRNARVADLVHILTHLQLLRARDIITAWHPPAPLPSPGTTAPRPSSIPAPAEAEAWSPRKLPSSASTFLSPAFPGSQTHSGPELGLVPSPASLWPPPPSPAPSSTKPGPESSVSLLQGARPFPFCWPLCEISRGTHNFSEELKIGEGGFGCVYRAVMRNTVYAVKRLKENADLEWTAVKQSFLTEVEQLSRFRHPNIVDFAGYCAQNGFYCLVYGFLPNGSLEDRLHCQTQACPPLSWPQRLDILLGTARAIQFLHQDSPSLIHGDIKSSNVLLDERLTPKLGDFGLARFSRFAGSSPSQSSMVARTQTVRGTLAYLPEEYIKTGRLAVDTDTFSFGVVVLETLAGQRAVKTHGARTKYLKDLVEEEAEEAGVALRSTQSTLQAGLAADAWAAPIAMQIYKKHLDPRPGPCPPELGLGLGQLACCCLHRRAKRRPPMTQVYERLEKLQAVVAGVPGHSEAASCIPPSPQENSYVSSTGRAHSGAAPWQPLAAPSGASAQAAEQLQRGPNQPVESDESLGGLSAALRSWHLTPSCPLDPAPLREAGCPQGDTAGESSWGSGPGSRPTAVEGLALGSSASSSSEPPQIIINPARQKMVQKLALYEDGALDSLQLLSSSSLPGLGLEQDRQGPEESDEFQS

Usually IC50 stands for the concentration needed to halve the response being measured. For `COc1cc2ncc(-c3cncc(N[C@@H]4CCCNC4)n3)n2nc1C1CC1` [Compound 23, (R)-6-(6-cyclopropyl-7-methoxyimidazo[1,2-b]pyridazin-3-yl)-N-(piperidin-3-yl)pyrazin-2-amine], the IC50 is below 0.5 nM against FLT3 (FLT3 IC50), 1 nM against IRAK4 (IRAK4 IC50) and 175 nM against IRAK1 (IRAK1 IC50).

Take `COc1cc2ncc(-c3cncc(N[C@H]4CNCC[C@@H]4F)n3)n2cc1C(C)(O)C(F)(F)F` (single isomer, unassigned) [Compound 66]: the IC50 on FLT3 (read-out: FLT3 IC50), on IRAK4 (read-out: IRAK4 IC50) and at IRAK1 (read-out: IRAK1 IC50) was below 0.5 nM each time.

Turning to `F[C@H]1CNC[C@@H]1Nc1nccc(-c2cnc3cc(OC4CC4)ccn23)n1` [Compound 37, 4-(7-cyclopropoxyimidazo [1,2-a]pyridin-3-yl)-N-((3S,4S)-4-fluoropyrrolidin-3-yl)pyrimidin-2-amine], the IC50 on FLT3 (FLT3 IC50) is below 0.5 nM; on IRAK4 (IRAK4 IC50), 1 nM; on IRAK1 (IRAK1 IC50) it was 13 nM.

On to `COc1cc2ncc(-c3cncc(N[C@H]4CNC[C@@H]4F)n3)n2nc1C(C)(O)C(F)(F)F` (single isomer, unassigned) [Compound 81], for which the results for the IC50 against FLT3 (FLT3 IC50), on IRAK4 (IRAK4 IC50) and on IRAK1 (IRAK1 IC50) were 8 nM, 2540 nM and 7900 nM, respectively.

Consider `COc1cc2ncc(-c3cncc(N[C@@H]4CCCNC4)n3)n2nc1C(C)(O)C(F)(F)F` (single isomer, unassigned) [Compound 82], for which the IC50 on FLT3 (FLT3 IC50) was determined as 67 nM; against IRAK4 (IRAK4 IC50), 2040 nM; against IRAK1 (IRAK1 IC50), 5440 nM.

In the case of `COc1cc2ncc(-c3cncc(N[C@@H]4CCCNC4)n3)n2nc1C(C)(O)C(F)(F)F` (single isomer, unassigned) [Compound 84], the values for the IC50 at FLT3 (FLT3 IC50), on IRAK4 (IRAK4 IC50) and on IRAK1 (IRAK1 IC50) were 2 nM, 512 nM and 3020 nM, respectively.

Take `CC(C)(O)c1ccc2ncc(-c3cncc(N[C@@H]4CCCNC4)n3)n2c1` [Compound 17, (R)-2-(3-(6-(piperidin-3-ylamino)pyrazin-2-yl)imidazo[1,2-a]pyridin-6-yl)propan-2-ol]: the 50% inhibitory concentration (IC50) on FLT3 (FLT3 IC50) came to 5 nM; at IRAK4 (IRAK4 IC50), 7 nM; on IRAK1 (IRAK1 IC50), 105 nM.

Consider `CC(C)(O)c1ccc2ncc(-c3ccnc(N[C@@H]4CCCNC4)n3)n2c1` [Compound 41, (R)-2-(3-(2-(piperidin-3-ylamino)pyrimidin-4-yl)imidazo[1,2-a]pyridin-6-yl)propan-2-ol], for which the figures for the IC50 at FLT3 (FLT3 IC50), against IRAK4 (IRAK4 IC50) and at IRAK1 (IRAK1 IC50) were 1 nM, 8 nM and 124 nM, respectively.

With `COc1cc2ncc(-c3ccnc(N[C@H]4CNC[C@@H]4F)n3)n2cc1C(C)(O)C(F)(F)F` (single isomer, unassigned) [Compound 55], the IC50 against FLT3 (FLT3 IC50), against IRAK4 (IRAK4 IC50) and against IRAK1 (IRAK1 IC50) was below 0.5 nM throughout.

The values above are taken from patent US20250154144A1 (CHILDREN'S HOSPITAL MEDICAL CENTER, priority 2021, published 2025).
